Consider eight compounds from patent US10183943B2, “Heterocyclic compounds and their use in preventing or treating bacterial infections” (MUTABILIS, priority 2015, dated 2019).

The structures appear in SMILES notation. Counter-ions that a name gives are not always drawn.

For assay [1], the target named is T1, TEM-1 (Escherichia coli, UniProt P62593).
T1 construct: made in house; host or cells: E. coli
Description: β-lactamase inhibitory activity, determination of IC50 (nitrocefin hydrolysis). It is filed as biochemical.

The target of assay [2] is AmpC (P99) (Enterobacter cloacae, UniProt P05364). The assay is described as above.
Assay [3] has as its target AmpC P. aeruginosa (Pseudomonas aeruginosa, UniProt P24735). The assay is described as above.
Assay [4] has as its system E. coli 131119 (TEM-1, OXA-48). Description: MIC of compounds alone, broth microdilution. The class given is cell-based. The conditions noted are these: Escherichia coli; strain 131119 (E. coli); read-out: MIC compounds of the invention alone. The protocol:
(§1) Method 2: MIC of Compounds and Synergy with Ceftazidime Against Bacterial Isolates (Table 2 and 3)
(§2) Compounds of the present invention were assessed against genotyped bacterial strains alone or in combination with the β-lactam ceftazidime (CAZ). In the assays, MICs of said compounds, or of ceftazidime at fixed concentrations of said compounds were determined by the broth microdilution method according to the Clinical Laboratory Standards Institute (CLSI-M7-A7). Briefly, compounds alone according to the invention were prepared in DMSO and spotted (2 μL each) on sterile polystyrene plates (Corning, 3788). Compounds and ceftazidime dilutions were prepared in DMSO and spotted (1 μL each) on sterile polystyrene plates (Corning, 3788). Log phase bacterial suspensions were adjusted to a final density of 5×10^5 cfu/mL in cation-adjusted Mueller-Hinton broth (Becton-Dickinson) and added to each well (98 μL). Microplates were incubated for 16-20 h at 35° C. in ambient air. The MIC of the compounds was defined as the lowest concentration of said compounds that prevented bacterial growth as read by visual inspection. The MIC of ceftazidime at each compound concentration was defined as the lowest concentration of ceftazidime that prevented bacterial growth as read by visual inspection.

Assay [5] has as its system E. coli RGN238 (OXA-1). Description: MIC of compounds alone, broth microdilution. The class given is cell-based. The following applies: Escherichia coli; strain RGN238 (E. coli); read-out: MIC compounds of the invention alone. The method, then:
as §1, §2

The test system of assay [6] is E. cloacae P99 (AmpC). Nature of the assay: MIC of compounds alone, broth microdilution. It is filed as cell-based. The conditions noted are these: Enterobacter cloacae; strain P99 (E. cloacae); read-out: MIC compounds of the invention alone. The protocol:
as §1, §2

For assay [7], the system named is K. pneumoniae BAA-1898 (TEM-1, SHV-11, SHV-12, KPC-2). Nature of the assay: MIC of compounds alone, broth microdilution. The following applies: Klebsiella pneumoniae, BAA1898; strain BAA-1898 (K. pneumoniae); read-out: MIC compounds of the invention alone. The class given is cell-based. The protocol:
as §1, §2

Assay [8] relates to E. coli 190317 (TEM-1, SHV-12, CTX-M-15, OXA-1). Nature of the assay: MIC of compounds alone, broth microdilution. The conditions noted are these: Escherichia coli, read-out: MIC compounds of the invention alone. The class given is cell-based. The method, then: as §1, §2
For assay [9], the system named is K. pneumoniae 6299 (TEM-1, SHV-11, OXA-163). Nature of the assay: MIC of compounds alone, broth microdilution. The class given is cell-based. The conditions noted are these: Klebsiella pneumoniae; strain 6299 (K. pneumoniae); read-out: MIC compounds of the invention alone. The method, then:
as §1, §2

For assay [10], the system named is P. aeruginosa CIP107051 (TEM-24). Description: MIC of compounds alone, broth microdilution. The class given is cell-based. The conditions noted are these: Pseudomonas aeruginosa; strain CIP107051 (P. aeruginosa); read-out: MIC compounds of the invention alone. The protocol: as §1, §2
In assay [11] the target is T2, KPC-2 (Klebsiella pneumoniae, UniProt Q9F663).
T2 construct: made in house; host or cells: E. coli
Description: β-lactamase inhibitory activity, determination of IC50 (nitrocefin hydrolysis). The following applies: class (A); nitrocefin 200 μM, 30 min pre-incubation; read-out: IC50 β-lactamase KPC-2. The class given is biochemical.

The target in assay [12] is T3, CTX-M-15 (Escherichia coli, UniProt Q9EXV5).
T3 construct: made in house; host or cells: E. coli
The description is as above. The class given is biochemical. The conditions noted are these: class (A); nitrocefin 200 μM, 30 min pre-incubation; read-out: IC50 β-lactamase CTX-M-15.

Assay [13] addresses T4, OXA-48 (Klebsiella pneumoniae, UniProt Q6XEC0).
T4 construct: made in house; host or cells: E. coli
The description is as above. The following applies: class (D); nitrocefin 200 μM, 30 min pre-incubation; read-out: IC50 β-lactamase OXA-48. The class given is biochemical.

The target in assay [14] is T5, SHV-1 (Klebsiella pneumoniae, UniProt P0AD64).
T5 construct: made in house; host or cells: E. coli
Described as above. It is filed as biochemical.

Assay [15] concerns the target T6, OXA-11 (Pseudomonas aeruginosa, UniProt Q06778).
T6 construct: made in house; host or cells: E. coli
Described as above. The class given is biochemical.

Assay [16] addresses T7, OXA-1 (Escherichia coli, UniProt P13661).
T7 construct: made in house; host or cells: E. coli
The description is as above. It is filed as biochemical. The following applies: class (D); nitrocefin 200 μM, 30 min pre-incubation; read-out: IC50 β-lactamase OXA-1.

The target of assay [17] is T8, OXA-15 (Pseudomonas aeruginosa, UniProt Q51574).
T8 construct: made in house; host or cells: E. coli
Description: biochemical.

T6 sequence (Q06778 21-266): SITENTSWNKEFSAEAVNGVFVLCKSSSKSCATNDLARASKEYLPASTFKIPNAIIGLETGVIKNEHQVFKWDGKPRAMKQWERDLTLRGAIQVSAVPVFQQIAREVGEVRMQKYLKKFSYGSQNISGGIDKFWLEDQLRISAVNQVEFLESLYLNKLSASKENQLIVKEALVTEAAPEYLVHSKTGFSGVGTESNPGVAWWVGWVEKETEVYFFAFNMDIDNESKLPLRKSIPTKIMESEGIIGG
T3 sequence (Q9EXV5 entry or part of it): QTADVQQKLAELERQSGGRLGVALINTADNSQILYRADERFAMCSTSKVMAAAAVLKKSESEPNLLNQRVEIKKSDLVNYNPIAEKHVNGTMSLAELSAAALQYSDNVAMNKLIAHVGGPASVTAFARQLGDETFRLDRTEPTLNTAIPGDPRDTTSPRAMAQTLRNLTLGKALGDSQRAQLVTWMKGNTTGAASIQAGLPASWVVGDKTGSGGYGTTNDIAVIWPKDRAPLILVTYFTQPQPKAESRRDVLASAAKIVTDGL
T7 sequence (P13661 26-276): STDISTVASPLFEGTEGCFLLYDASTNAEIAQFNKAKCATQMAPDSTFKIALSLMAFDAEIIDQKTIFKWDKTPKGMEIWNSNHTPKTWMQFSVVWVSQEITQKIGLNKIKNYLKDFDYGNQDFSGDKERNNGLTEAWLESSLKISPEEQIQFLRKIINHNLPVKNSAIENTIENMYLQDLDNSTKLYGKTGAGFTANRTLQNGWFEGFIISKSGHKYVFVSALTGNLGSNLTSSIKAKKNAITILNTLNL
T4 sequence (Q6XEC0 23-265 limits assumed): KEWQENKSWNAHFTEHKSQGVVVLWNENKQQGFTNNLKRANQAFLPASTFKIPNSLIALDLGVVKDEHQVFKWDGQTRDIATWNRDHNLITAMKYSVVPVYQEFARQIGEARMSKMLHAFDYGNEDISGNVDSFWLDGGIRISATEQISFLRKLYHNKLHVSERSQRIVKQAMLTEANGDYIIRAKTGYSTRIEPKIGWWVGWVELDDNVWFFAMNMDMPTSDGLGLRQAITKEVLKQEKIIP
T1 sequence (P62593 24-286 limits assumed): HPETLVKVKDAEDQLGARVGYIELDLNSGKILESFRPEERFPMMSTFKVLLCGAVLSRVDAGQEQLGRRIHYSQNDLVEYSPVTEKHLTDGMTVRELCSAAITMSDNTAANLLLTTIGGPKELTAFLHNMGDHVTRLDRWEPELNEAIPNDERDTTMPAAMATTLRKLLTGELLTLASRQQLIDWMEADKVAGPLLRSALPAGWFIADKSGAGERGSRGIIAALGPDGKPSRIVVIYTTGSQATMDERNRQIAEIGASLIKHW
T2 sequence (Q9F663 25-293 limits assumed): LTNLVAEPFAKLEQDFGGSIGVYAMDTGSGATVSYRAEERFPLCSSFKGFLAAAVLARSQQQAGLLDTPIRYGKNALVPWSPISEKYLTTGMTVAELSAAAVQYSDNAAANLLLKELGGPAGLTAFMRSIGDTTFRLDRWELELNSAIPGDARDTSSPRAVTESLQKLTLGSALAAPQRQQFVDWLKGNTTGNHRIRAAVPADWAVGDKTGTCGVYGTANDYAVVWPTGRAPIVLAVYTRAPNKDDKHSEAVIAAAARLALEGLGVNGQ
T8 sequence (Q51574 22-275): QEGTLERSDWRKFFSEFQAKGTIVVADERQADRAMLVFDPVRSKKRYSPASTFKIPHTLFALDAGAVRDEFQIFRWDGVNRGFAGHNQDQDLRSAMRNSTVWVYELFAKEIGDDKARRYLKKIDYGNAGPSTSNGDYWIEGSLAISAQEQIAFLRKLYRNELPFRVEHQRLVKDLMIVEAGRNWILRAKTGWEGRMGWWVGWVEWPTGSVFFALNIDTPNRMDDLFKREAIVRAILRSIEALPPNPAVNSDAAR
T5 sequence (P0AD64 22-286): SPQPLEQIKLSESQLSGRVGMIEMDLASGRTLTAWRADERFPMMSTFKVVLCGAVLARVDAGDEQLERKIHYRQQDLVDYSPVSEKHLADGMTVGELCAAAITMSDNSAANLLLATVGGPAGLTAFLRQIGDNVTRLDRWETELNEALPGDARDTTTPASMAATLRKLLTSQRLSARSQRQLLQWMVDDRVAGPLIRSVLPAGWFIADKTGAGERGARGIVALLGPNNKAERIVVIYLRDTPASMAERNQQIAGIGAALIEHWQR
AmpC P. aeruginosa, sequence (P24735 27-397): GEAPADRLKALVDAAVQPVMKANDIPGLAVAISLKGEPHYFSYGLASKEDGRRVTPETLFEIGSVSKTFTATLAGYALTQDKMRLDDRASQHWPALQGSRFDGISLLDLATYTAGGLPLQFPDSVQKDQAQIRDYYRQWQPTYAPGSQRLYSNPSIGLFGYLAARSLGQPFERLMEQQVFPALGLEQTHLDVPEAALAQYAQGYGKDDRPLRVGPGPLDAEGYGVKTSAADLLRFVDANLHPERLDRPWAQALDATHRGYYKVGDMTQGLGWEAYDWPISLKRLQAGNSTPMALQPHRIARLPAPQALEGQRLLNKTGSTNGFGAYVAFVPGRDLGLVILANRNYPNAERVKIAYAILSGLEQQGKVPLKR
AmpC (P99), sequence (P05364 21-381): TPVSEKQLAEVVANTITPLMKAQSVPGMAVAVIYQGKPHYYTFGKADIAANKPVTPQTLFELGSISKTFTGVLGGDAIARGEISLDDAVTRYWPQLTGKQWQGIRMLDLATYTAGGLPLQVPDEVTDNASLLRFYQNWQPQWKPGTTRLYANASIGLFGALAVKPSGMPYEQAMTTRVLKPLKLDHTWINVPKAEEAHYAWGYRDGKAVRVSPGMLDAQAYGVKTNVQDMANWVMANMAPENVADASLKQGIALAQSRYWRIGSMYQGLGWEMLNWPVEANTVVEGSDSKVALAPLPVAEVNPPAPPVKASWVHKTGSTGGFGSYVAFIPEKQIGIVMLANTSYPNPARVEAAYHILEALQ

Take `Cn1cc(C2=CC3CN(C2)C(=O)N3OS(=O)(=O)[O-])ccc1=O.[Na+]` (stereo not shown) [Example 28, Sodium [3-(1-methyl-6-oxo-3-pyridyl)-7-oxo-1,6-diazabicyclo[3.2.1]oct-3-en-6-yl] sulfate]: the 50% inhibitory concentration (IC50) in [1] is 1.6 nM; in [2] it was 77 nM; in assay [3], 520 nM; in [11], 6.5 nM; in assay [12], 4.4 nM; in assay [13], 54 nM. Further, the 50% inhibitory concentration (IC50) was 3.8 nM in [14], 430 nM in assay [15], 1000 nM in assay [16] and 18 nM in [17]. Further, the MIC in [4], in assay [5], in assay [6], in assay [7], in assay [8] and in assay [9] was more than 32 µg/mL in each case. For the same compound, in assay [10], the MIC is more than 32 µg/mL.

Turning to `NCc1ncc(C2=CCN3CC2N(OS(=O)(=O)O)C3=O)s1` (stereo not shown) [Example 32, [4-[2-(aminomethyl)thiazol-5-yl]-7-oxo-1,6-diazabicyclo[3.2.1]oct-3-en-6-yl] hydrogen sulfate], the IC50 worked out at 7.5 nM in [1]; 4400 nM in assay [2]; 3200 nM in assay [3]; 300 nM in [11]; 14 nM in assay [12]; 8.9 nM in assay [13]. The concentration for half-maximal inhibition (IC50) worked out at 33 nM in assay [14], 3500 nM in [15], 670 nM in [16] and 170 nM in assay [17]. Further, the minimum inhibitory concentration (MIC) was more than 32 µg/mL in [4]; more than 32 µg/mL in assay [5]; 16 µg/mL in assay [6]; more than 32 µg/mL in assay [7]; 8 µg/mL in assay [8]; more than 32 µg/mL in [9]. Besides, the MIC in assay [10] is more than 32 µg/mL.

Regarding `Cn1cccc(C2=CCN3CC2N(OS(=O)(=O)[O-])C3=O)c1=O.[Na+]` (stereo not shown) [Example 16, Sodium [4-(N-methyl-2-oxo-3-pyridyl)-7-oxo-1,6-diazabicyclo[3.2.1]oct-3-en-6-yl] sulfate], the half-inhibitory concentration (IC50) in assay [1] came out at 56 nM; in [2], 7300 nM; in assay [3], 7100 nM; in assay [11], 4500 nM; in assay [12], 100 nM; in [13] it was 10 nM. For the same compound, the IC50 in assay [14] worked out at 120 nM; in [15], 7400 nM; in assay [16], 720 nM; in [17], 27 nM. For the same compound, the MIC in [4], in [5], in assay [6], in assay [7], in assay [8] and in assay [9] was more than 32 µg/mL throughout. In addition, the minimum inhibitory concentration (MIC) in assay [10] was more than 32 µg/mL.

Regarding `O=C1N2CC=C(c3cn[nH]c3)C(C2)N1OS(=O)(=O)[O-].[Na+]` (stereo not shown) [Example 1, Sodium (7-oxo-4-pyrazol-4-yl-1,6-diaza-bicyclo[3.2.1]oct-3-en-6-yl) sulfate], the IC50 stood at 13 nM in assay [1]; 6100 nM in assay [2]; 9300 nM in [3]; 770 nM in assay [11]; 26 nM in [12]; 8.9 nM in assay [13]. Also, the IC50 amounted to 29 nM in assay [14], 2900 nM in assay [15], 1400 nM in [16] and 590 nM in [17]. The minimal inhibitory concentration (MIC) in assay [4] was more than 32 µg/mL; in assay [5], more than 32 µg/mL; in [6], more than 32 µg/mL; in [7], more than 32 µg/mL; in assay [8], 32 µg/mL; in assay [9] it was more than 32 µg/mL. Also, in assay [10], the minimum inhibitory concentration (MIC) is more than 32 µg/mL.

In the case of `O=C1N2CC=C(c3cnccn3)C(C2)N1OS(=O)(=O)[O-].[Na+]` (stereo not shown) [Example 12, Sodium [4-(pyrazin-2-yl)-7-oxo-1,6-diazabicyclo[3.2.1]oct-3-en-6-yl]sulfate], the half-maximal inhibitory concentration (IC50) in assay [1] turned out to be 3.1 nM; in [2] it was 1400 nM; in assay [3], 1600 nM; in [11] it was 310 nM; in [12] it was 5.7 nM; in assay [13] it was 3.2 nM. For the same compound, the half-maximal inhibitory concentration (IC50) is 6.9 nM in assay [14], 1200 nM in [15], 350 nM in assay [16] and 66 nM in [17]. The MIC in assay [4] is 16 µg/mL; in [5] it was more than 32 µg/mL; in assay [6], more than 32 µg/mL; in assay [7] it was more than 32 µg/mL; in [8], more than 32 µg/mL; in assay [9], more than 32 µg/mL. Moreover, in assay [10], the MIC is more than 32 µg/mL.

As to `COc1ncc(C2=CCN3CC2N(OS(=O)(=O)[O-])C3=O)cn1.[Na+]` (stereo not shown) [Example 24, Sodium [4-(2-methoxypyrimidin-5-yl)-7-oxo-1,6-diazabicyclo[3.2.1]oct-3-en-6-yl] sulfate], the concentration for half-maximal inhibition (IC50) in assay [1] came to 12 nM; in assay [2], 1100 nM; in assay [3], 1400 nM; in assay [11], 160 nM; in assay [12] it was 14 nM; in [13] it was 3.6 nM. Besides, the IC50 in [14] was determined as 20 nM; in assay [15], 1200 nM; in [16], 380 nM; in [17], 48 nM. The MIC in assay [4] was more than 32 µg/mL; in [5] it was more than 32 µg/mL; in [6], more than 32 µg/mL; in assay [7] it was more than 32 µg/mL; in assay [8], 16 µg/mL; in [9] it was more than 32 µg/mL. Further, the minimal inhibitory concentration (MIC) in [10] is more than 32 µg/mL.

Regarding `Cn1cc(C2=CCN3CC2N(OS(=O)(=O)[O-])C3=O)c(=O)n(C)c1=O.[Na+]` (stereo not shown) [Example 23, Sodium [4-(1,3-dimethyluracil-5-yl)-7-oxo-1,6-diazabicyclo[3.2.1]oct-3-en-6-yl] sulfate], the IC50 was determined as 1.5 nM in [1]; 580 nM in assay [2]; 1600 nM in [3]; 97 nM in [11]; 12 nM in [12]; 4.8 nM in [13]. The concentration for half-maximal inhibition (IC50) turned out to be 3.1 nM in [14], 2200 nM in assay [15], 870 nM in assay [16] and 110 nM in assay [17]. For the same compound, the MIC was 32 µg/mL in [4]; more than 32 µg/mL in [5]; more than 32 µg/mL in [6]; more than 32 µg/mL in assay [7]; more than 32 µg/mL in assay [8]; more than 32 µg/mL in [9]. Further, in [10], the MIC was more than 32 µg/mL.

As for `Cn1nc(C2=CCN3CC2N(OS(=O)(=O)[O-])C3=O)ccc1=O.[Na+]` (stereo not shown) [Example 17, Sodium [4-(1-methyl-6-oxo-pyridazin-3-yl)-7-oxo-1,6-diazabicyclo[3.2.1]oct-3-en-6-yl] sulfate], the IC50 in [1] was determined as 1.2 nM; in [2] it was 2300 nM; in [3] it was 910 nM; in assay [11], 130 nM; in [12], 5.7 nM; in assay [13], 3.9 nM. In addition, the IC50 stood at 2.8 nM in [14], 1400 nM in assay [15], 330 nM in assay [16] and 57 nM in assay [17]. Further, the MIC in [4] was 16 µg/mL; in assay [5], 32 µg/mL; in assay [6], 16 µg/mL; in assay [7] it was more than 32 µg/mL; in [8] it was 4 µg/mL; in assay [9], more than 32 µg/mL. Besides, in assay [10], the MIC is more than 32 µg/mL.
